Data published in paper PMC4949444 (Scientific Reports, 2016).

How the values were obtained:
STHdh^Q7/Q7 = assay: Serum deprivation survival of STHdh Q7/Q7 striatal neuroblasts (MTT); assay type: cell-based, mouse; settings: STHdh Q7/Q7, 72 h
Experimental: Figure 4 In vitro neuroprotective action of VCE-003.2. (a) HiB5 cells were treated with quinolinic acid (QA; 2,5 mM) in the presence or the absence of VCE-003.2 (50 and 250 nM) and cell viability was determined after 24 h by the MTT assay. (b) QA-induced apoptosis measured by cleaved caspase 3 immunostaining (upper panel) of differentiating HiB5 cells was quantified in the presence or absence of VCE-003.2 (250 nM). Cell counts were referred to total cell nuclei counterstained with DAPI and c-caspase3^+ cell quantification is shown in the lower panel. […]. (d) Aggregation of mut-Htt was assessed by fluorescence microscopy in immortalized striatal STHdh transfected cells with a CFP-tagged expression vector of mutant huntingtin (mut-Htt) and counterstained with fluorescent phalloidin (upper panel). […]. Results are representative of three independent experiments. Values are expressed as means ± S. D. *p < 0.05 and ***p < 0.001 vs. Vehicle; ^#p < 0.05 ^##p < 0.01 vs. QA. […]
The HiB5 hippocampal progenitor cell line (kindly provided by Prof. Z. Kokaia, Lund Stem Cell Center, Sweden) was grown as described[46] in DMEM supplemented with 2 mM glutamine, 1% penicillin/streptomycin and 10% (v/v) fetal calf serum (FCS; Lonza, Switzerland). […] Cell viability was determined after 24 h using the 3-[4,5-dimethylthiazol-2-yl]-2,5-diphenyltetrazolium bromide (MTT) tesresults int. […]

HiB5 cells = assay: HiB5 neural progenitor cell viability (MTT); assay type: cell-based
Experimental: Figure 3 Prosurvival effect of VCE-003.2 in hippocampal neural progenitor HiB5 cells. (a,b) HiB5 cells in proliferative and differentiation conditions respectively were incubated with increasing concentrations of VCE-003.2 and cell viability was assessed using the MTT test after 48 h. (c) Cell viability and ERK1/2 phosphorylation status (activation) was determined in VCE-003.2-treated cells in the absence or presence of GW9662 (5 μM). (d) VCE-003.2 time-dependent regulation of the ERK, Akt and mTORC1 signaling pathways were determined by incubation with anti-phospho-ERK, phospho-Akt and phospho-S6 antibodies. Loading control was performed with α-tubulin antibody. Representative western blots and densitometry quantification of three independent experiments are shown. Values are expressed as means ± S.D. *p < 0.05; **p < 0.01 vs. Vehicle; ^#p < 0.05 vs. VCE-003.2.
The HiB5 hippocampal progenitor cell line (kindly provided by Prof. Z. Kokaia, Lund Stem Cell Center, Sweden) was grown as described[46] in DMEM supplemented with 2 mM glutamine, 1% penicillin/streptomycin and 10% (v/v) fetal calf serum (FCS; Lonza, Switzerland). HiB5 cell cultures were incubated in 5% CO2 at 33 °C, the proliferation-permissive temperature of the oncogenic tsA58 allele of the SV40 large T antigen. Incubation at 37 °C loss of proliferative capacity and neural differentiation. Cell viability was determined after 24 h using the 3-[4,5-dimethylthiazol-2-yl]-2,5-diphenyltetrazolium bromide (MTT) […]. Immortalized mouse striatal STHdh cells (kindly provided by S. Gines, U. Barcelona, Spain) were cultured as described. Cell were transiently transfected with 10 μg doxycycline-inducible CFP-huntingtin-94Q using Amaxa´s Nucleofector following the instructions of the manufacturer (Lonza). In addition STHdh^Q7/Q7 and STHdh^Q111/Q111 expressing endogenous levels of full-length huntingtin with 7 glutamines or 111 glutamines in the protein N-terminal domain, respectively, were used. […]

N2a cells = assay: Reactive oxygen species production in N2a cells (CM-H2DCFDA); assay type: cell-based; settings: 2 hours
Experimental: Determination of ROS: N2a cells were seeded at 25x 10^3 cells/ml in 96-well plates and incubated with 0.25 ȝM 5-(and-6 )-chloro meth yl-2ƍ,7ƍ-dichlorodihydrofluorescein diacetate acet yl ester (C M-H 2 DCFDA) for 20 minutes at 37°C. Then, the cells were treated with either VCE-003 or VCE-003.2 for 2 hours. Cells exposed to pro-oxidant tert-Butyl h ydroperoxide (TBHP) were used as positive control. H 2 DCFDA oxidation was detected using an Incuc yteTM Live-Cell Imaging S ystem (Hertfordshire, UK).
Supplementary Figure S1. Non-elect rophilic activity for VCE-003.2. (a) Reactive ox ygen species production. N2a cells were stained with CM-H2DCFDA and treated with VCE-003 or VCE-003.2 for 2 hours. Then, reactive ox ygen sp ecies were measured b y In cu c yt e TM Liv e-Cell Im agin g S ystem. Results are ex pressed as m ean of t otal integrated intensity (ROS positive cells) ± S.D. (b) Effect on Nrf2 transcriptional activity.
VCE-003 treatment vers us Vehicle treated cells.

[1] = tested on: osteoblast-differentiating MSCs; assay: Osteoblast differentiation of human mesenchymal stem cells; settings: osteoblastogenic medium, 14 days of differentiation
Source text: The Reina Sofia University Hospital Review Board approved this study and the procedures followed were in accordance with the ethical standards of the ethic committee from Hospital Reina Sofía and with the Declaration of Helsinki. Bone marrow donors were recruited by the Haematology Service. All subjects gave their informed consent so that the bone marrow aliquots extracted for clinical purposes could also be used for mesenchymal bone marrow research. […] Adipogenic and osteoblast differentiation was performed as described[22]. Treatment with RZG and VCE-003.2 started at the same time as the differentiation process. […] The images captured with the light microscope were analyzed with the ImageJ Software (NIH; Bethesda, MD, USA).
Cells were collected at day 14 of differentiation and total RNA was extracted using the High Pure RNA Isolation kit (Roche Diagnostics). The total amount of RNA extracted was quantified using NanoDrop 2000 (Thermo Fisher Scientific Inc). Total RNA (1 μg) was retrotranscribed using the iScriptTM cDNA Synthesis Kit (Bio-Rad; Hercules, CA, USA), and the cDNA generated was analyzed by real-time PCR, using the iQ^TM SYBR Green Supermix (Bio-Rad; Hercules, CA, USA). Real-time PCR to quantify the mRNA of osteoblastic and adipocityc markers was performed using a CFX96 Real-time PCR Detection System (Bio-Rad; Hercules, CA, USA). […]

SMILES: CCCCCC1=C(NCC)C(=O)C(C/C=C(\C)CCC=C(C)C)=C(O)C1=O [VCE-003.2]
- neuronal viability after serum deprivation (STHdh^Q7/Q7): improved
- cell viability, proliferative conditions (HiB5 cells; HiB5, 50 nM to 50 μM, MTT): not toxic even at the highest concentrations employed
- cell viability during neuronal differentiation (HiB5 cells; HiB5, differentiation conditions, increasing concentrations, MTT): exerted a prosurvival activity at lower concentrations, while at high concentrations it was toxic and reduced cell viability
- prosurvival action in presence of PPARγ antagonist (HiB5 cells; VCE-003.2 250 nM + GW9662 5 μM): prevented
- induction of reactive oxygen species (ROS) (N2a cells): none of these bioactivities were induced
- expression of osteogenic differentiation markers Runx2, SP7, ALP, IBSP [1]: mild and did not inhibit the expression of osteogenic differentiation markers
